Ki data for 15 compounds are collected here from publication PMC11672547, “Combination of Coevolutionary Information and Supervised Learning Enables Generation of Cyclic Peptide Inhibitors with Enhanced Potency from a Small Data Set” (ACS Central Science, 2024).

For orientation: Ki means a dissociation constant, usually derived from enzyme kinetics or from competition with a known ligand.

Molecules are shown by their SMILES. Numbered stars: 1 amine (or outer) side, 2 acyl side, 3 side chain; on linkers, the order of the positions; unused ones are H or OH. Bridge positions count the residues as written; N and C are the ends. Peptide text beside a SMILES is read from it. TBMB = c1c(C[*:1])cc(C[*:3])cc1C[*:2]

The target in the test is T1, human urokinase-type plasminogen activator (huPA) (Homo sapiens, UniProt P00749).
T1 construct: (UPA-LMW, Molecular Innovations, Novi, MI, USA) 1.5 nM; purchased Molecular Innovations UPA-LMW
Briefly: huPA inhibition, fluorogenic enzyme activity assay (Z-Gly-Gly-Arg-AMC), Ki by Cheng-Prusoff. As to conditions: 25 °C, pH 7.4, substrate 50 μM, mean ± S.E. of at least three measurements, read-out: Ki. Format: biochemical. As for the experimental part: bicyclic peptides. The activity assay was performed by incubating […] huPA with 50 μM fluorogenic substrate Z-Gly-Gly-Arg-AMC (50 μM; Bachem, Bubendorf, Switzerland) and […]
NaCl, 10 mM MgCl2, 1mM CaCl2, 0.1% w/v BSA, 0.01% v/v Triton-X100 and 5% v/v DMSO.
The measurements were performed on a Tecan microplate reader (Tecan infinite 200 pro, Tecan Trading AG, Switzerland) using black microfluor 96-well plate Nunc MicroWell, (Thermo Fisher Scientific, Dreieich, Germany) The enzymatic reactions were performed at 25 °C for 30 min, under shacking with an excitation wavelength of 355 nm and an emission recording at 460 nm. The initial velocities were monitored as changes in fluorescence intensity. The sigmoidal curves were fitted to the data using the following non-linear regression equation for the inhibitory dose-response curves with variable slope (2): […]
where x is the peptide concentration, y is the residual percentage of protease activity and p is the hill slope. Half maximum inhibitory concentration (IC50) values were derived from the fitted curves from GraphPad Prism 8 8.0.0. software (GraphPad software, Inc., San Diego, California). The final Ki was subsequently determined using the Cheng-Prusoff equation (3): […]
where Km (115 μM) is the Michaelis constant for the hydrolysis of Z-Gly-Gly-Arg-AMC catalysed by huPA which has been determined by standard Michaelis-Menten equation.
Values were determined using either OriginPro 8G software (OriginLab Corporation, Northamppton, MA, USA) or GraphPad Prism 8.0.0. software (GraphPad software, Inc., San […]
Recombinant production of the catalytic domain of human urokinase-type […]
The low molecular weight (LMW) human urokinase-type plasminogen activator (huPA) comprising the truncated 23 amino acid peptide fragment of chain A (Lys136-Lys158 in […]
Consider `CC(C)[C@@H]1NC(=O)[C@H](CCC(=O)O)NC(=O)[C@H](Cc2ccc(O)cc2)NC(=O)[C@H](CCCN=C(N)N)NC(=O)[C@H](CO)NC(=O)[C@@H](NC(=O)[C@H](C)N)CSCc2cc3cc(c2)CSC[C@H](NC(=O)[C@H](CC(=O)O)NC1=O)C(=O)N[C@@H](CCCN=C(N)N)C(=O)NCC(=O)N[C@@H](CCCN=C(N)N)C(=O)NCC(=O)N[C@@H](CO)C(=O)N[C@@H](C)C(=O)N[C@H](C(=O)NCC(N)=O)CSC3` [UK18, reference compound] (H-ACSRYEVDCRGRGSACG-NH2; linker 2-9-16 via TBMB), for which the Ki is 54.7 ± 8 nM.

`CC(C)[C@@H]1NC(=O)CNC(=O)CNC(=O)[C@H](CCCNC(=N)N)NC(=O)CNC(=O)[C@H](CCCNC(=N)N)NC(=O)[C@@H]2CSCc3cc(cc(c3)CSC[C@@H](C(=O)NCC(N)=O)NC1=O)CSC[C@H](NC(=O)[C@H](C)N)C(=O)N[C@@H](CC(=O)O)C(=O)N[C@@H](CCCNC(=N)N)C(=O)N[C@@H](Cc1ccccc1)C(=O)N[C@@H](C(C)C)C(=O)N[C@@H](C(C)C)C(=O)N[C@@H](CC(=O)O)C(=O)N2` [UK956] (H-ACDRFVVDCRGRGGVCG-NH2; linker 2-9-16 via TBMB): the Ki came to 94.7 ± 0.3 nM.

For the compound `CC(C)[C@@H]1NC(=O)[C@H](Cc2ccccc2)NC(=O)[C@H](CCCNC(=N)N)NC(=O)[C@H](CC(=O)O)NC(=O)[C@@H](NC(=O)[C@H](C)N)CSCc2cc3cc(c2)CSC[C@@H](C(=O)NCC(N)=O)NC(=O)[C@@H]2CCCN2C(=O)CNC(=O)CNC(=O)[C@H](CCCNC(=N)N)NC(=O)CNC(=O)[C@H](CCCNC(=N)N)NC(=O)[C@H](CSC3)NC(=O)[C@H](CC(=O)O)NC(=O)[C@H](C(C)C)NC1=O` [UK957] (H-ACDRFVVDCRGRGGPCG-NH2; linker 2-9-16 via TBMB), the Ki worked out at 7.4 ± 0.9 nM.

With `CC(C)[C@@H]1NC(=O)[C@H](CO)NC(=O)CNC(=O)[C@H](CCCNC(=N)N)NC(=O)CNC(=O)[C@H](CCCNC(=N)N)NC(=O)[C@@H]2CSCc3cc(cc(c3)CSC[C@@H](C(=O)NCC(N)=O)NC1=O)CSC[C@H](NC(=O)[C@H](C)N)C(=O)N[C@@H](CC(=O)O)C(=O)N[C@@H](CCCNC(=N)N)C(=O)N[C@@H](Cc1ccccc1)C(=O)N[C@@H](C(C)C)C(=O)N[C@@H](C(C)C)C(=O)N[C@@H](CC(=O)O)C(=O)N2` [UK958] (H-ACDRFVVDCRGRGSVCG-NH2; linker 2-9-16 via TBMB), the Ki amounted to 154.9 ± 1 nM.

Take `CC(C)[C@@H]1NC(=O)[C@H](Cc2ccccc2)NC(=O)[C@H](CCCNC(=N)N)NC(=O)[C@H](CC(=O)O)NC(=O)[C@@H](NC(=O)[C@H](C)N)CSCc2cc3cc(c2)CSC[C@@H](C(=O)NCC(N)=O)NC(=O)[C@@H]2CCCN2C(=O)[C@H](CO)NC(=O)CNC(=O)[C@H](CCCNC(=N)N)NC(=O)CNC(=O)[C@H](CCCNC(=N)N)NC(=O)[C@H](CSC3)NC(=O)[C@H](CC(=O)O)NC(=O)[C@H](C(C)C)NC1=O` [UK959] (H-ACDRFVVDCRGRGSPCG-NH2; linker 2-9-16 via TBMB): the Ki amounted to 77.5 ± 0.2 nM.

Regarding `CC(C)[C@@H]1NC(=O)CNC(=O)CNC(=O)[C@H](CCCNC(=N)N)NC(=O)CNC(=O)[C@H](CCCNC(=N)N)NC(=O)[C@@H]2CSCc3cc(cc(c3)CSC[C@@H](C(=O)NCC(N)=O)NC1=O)CSC[C@H](NC(=O)[C@H](C)N)C(=O)N[C@@H](CC(=O)O)C(=O)N[C@@H](CCCNC(=N)N)C(=O)N[C@@H](Cc1ccccc1)C(=O)N[C@@H](CCC(=O)O)C(=O)N[C@@H](C(C)C)C(=O)N[C@@H](CC(=O)O)C(=O)N2` [UK960] (H-ACDRFEVDCRGRGGVCG-NH2; linker 2-9-16 via TBMB), the Ki turned out to be 81.2 ± 0.3 nM.

As for `CC(C)[C@@H]1NC(=O)[C@H](CCC(=O)O)NC(=O)[C@H](Cc2ccccc2)NC(=O)[C@H](CCCNC(=N)N)NC(=O)[C@H](CC(=O)O)NC(=O)[C@@H](NC(=O)[C@H](C)N)CSCc2cc3cc(c2)CSC[C@@H](C(=O)NCC(N)=O)NC(=O)[C@@H]2CCCN2C(=O)CNC(=O)CNC(=O)[C@H](CCCNC(=N)N)NC(=O)CNC(=O)[C@H](CCCNC(=N)N)NC(=O)[C@H](CSC3)NC(=O)[C@H](CC(=O)O)NC1=O` [UK961] (H-ACDRFEVDCRGRGGPCG-NH2; linker 2-9-16 via TBMB), the Ki is 16.2 nM.

With `CC(C)[C@@H]1NC(=O)[C@H](CO)NC(=O)CNC(=O)[C@H](CCCNC(=N)N)NC(=O)CNC(=O)[C@H](CCCNC(=N)N)NC(=O)[C@@H]2CSCc3cc(cc(c3)CSC[C@@H](C(=O)NCC(N)=O)NC1=O)CSC[C@H](NC(=O)[C@H](C)N)C(=O)N[C@@H](CC(=O)O)C(=O)N[C@@H](CCCNC(=N)N)C(=O)N[C@@H](Cc1ccccc1)C(=O)N[C@@H](CCC(=O)O)C(=O)N[C@@H](C(C)C)C(=O)N[C@@H](CC(=O)O)C(=O)N2` [UK962] (H-ACDRFEVDCRGRGSVCG-NH2; linker 2-9-16 via TBMB), the Ki was 81 ± 7.9 nM.

Consider `CC(C)[C@@H]1NC(=O)[C@H](CCC(=O)O)NC(=O)[C@H](Cc2ccccc2)NC(=O)[C@H](CCCNC(=N)N)NC(=O)[C@H](CC(=O)O)NC(=O)[C@@H](NC(=O)[C@H](C)N)CSCc2cc3cc(c2)CSC[C@@H](C(=O)NCC(N)=O)NC(=O)[C@@H]2CCCN2C(=O)[C@H](CO)NC(=O)CNC(=O)[C@H](CCCNC(=N)N)NC(=O)CNC(=O)[C@H](CCCNC(=N)N)NC(=O)[C@H](CSC3)NC(=O)[C@H](CC(=O)O)NC1=O` [UK963] (H-ACDRFEVDCRGRGSPCG-NH2; linker 2-9-16 via TBMB), for which the Ki was found to be 81.4 ± 0.9 nM.

Consider `CC(C)[C@@H]1NC(=O)[C@H](CCC(=O)O)NC(=O)[C@H](Cc2ccc(O)cc2)NC(=O)[C@H](CCCNC(=N)N)NC(=O)[C@H](CO)NC(=O)[C@@H](NC(=O)[C@H](C)N)CSCc2cc3cc(c2)CSC[C@@H](C(=O)NCC(N)=O)NC(=O)[C@@H]2CCCN2C(=O)[C@H](CO)NC(=O)CNC(=O)[C@H](CCCNC(=N)N)NC(=O)CNC(=O)[C@H](CCCNC(=N)N)NC(=O)[C@H](CSC3)NC(=O)[C@H](CC(=O)O)NC1=O` [UK964] (H-ACSRYEVDCRGRGSPCG-NH2; linker 2-9-16 via TBMB), for which the Ki turned out to be 31.4 ± 0.1 nM.

Turning to `CC(C)[C@@H]1NC(=O)[C@H](CCC(=O)O)NC(=O)[C@H](Cc2ccc(O)cc2)NC(=O)[C@H](CCCNC(=N)N)NC(=O)[C@H](CO)NC(=O)[C@@H](NC(=O)[C@H](C)N)CSCc2cc3cc(c2)CSC[C@@H](C(=O)NCC(N)=O)NC(=O)[C@@H]2CCCN2C(=O)CNC(=O)CNC(=O)[C@H](CCCNC(=N)N)NC(=O)CNC(=O)[C@H](CCCNC(=N)N)NC(=O)[C@H](CSC3)NC(=O)[C@H](CC(=O)O)NC1=O` [UK965] (H-ACSRYEVDCRGRGGPCG-NH2; linker 2-9-16 via TBMB), the Ki is 12.3 ± 1 nM.

`CC(C)[C@@H]1NC(=O)[C@H](CCC(=O)O)NC(=O)[C@H](Cc2ccc(O)cc2)NC(=O)[C@H](CCCNC(=N)N)NC(=O)[C@H](CC(=O)O)NC(=O)[C@@H](NC(=O)[C@H](C)N)CSCc2cc3cc(c2)CSC[C@@H](C(=O)NCC(N)=O)NC(=O)[C@@H]2CCCN2C(=O)CNC(=O)CNC(=O)[C@H](CCCNC(=N)N)NC(=O)CNC(=O)[C@H](CCCNC(=N)N)NC(=O)[C@H](CSC3)NC(=O)[C@H](CC(=O)O)NC1=O` [UK966] (H-ACDRYEVDCRGRGGPCG-NH2; linker 2-9-16 via TBMB): the Ki was 11.6 ± 1.2 nM.

`CC(C)[C@@H]1NC(=O)[C@H](CCC(=O)O)NC(=O)[C@H](Cc2ccccc2)NC(=O)[C@H](CCCNC(=N)N)NC(=O)[C@H](CO)NC(=O)[C@@H](NC(=O)[C@H](C)N)CSCc2cc3cc(c2)CSC[C@@H](C(=O)NCC(N)=O)NC(=O)[C@@H]2CCCN2C(=O)CNC(=O)CNC(=O)[C@H](CCCNC(=N)N)NC(=O)CNC(=O)[C@H](CCCNC(=N)N)NC(=O)[C@H](CSC3)NC(=O)[C@H](CC(=O)O)NC1=O` [UK967] (H-ACSRFEVDCRGRGGPCG-NH2; linker 2-9-16 via TBMB): the Ki worked out at 18.1 ± 0.3 nM.

With `CC(C)[C@@H]1NC(=O)[C@H](Cc2ccc(O)cc2)NC(=O)[C@H](CCCNC(=N)N)NC(=O)[C@H](CO)NC(=O)[C@@H](NC(=O)[C@H](C)N)CSCc2cc3cc(c2)CSC[C@@H](C(=O)NCC(N)=O)NC(=O)[C@@H]2CCCN2C(=O)CNC(=O)CNC(=O)[C@H](CCCNC(=N)N)NC(=O)CNC(=O)[C@H](CCCNC(=N)N)NC(=O)[C@H](CSC3)NC(=O)[C@H](CC(=O)O)NC(=O)[C@H](C(C)C)NC1=O` [UK968] (H-ACSRYVVDCRGRGGPCG-NH2; linker 2-9-16 via TBMB), the Ki is 5.5 ± 0.4 nM.

As for `CC(C)[C@@H]1NC(=O)[C@H](Cc2ccc(O)cc2)NC(=O)[C@H](CCCNC(=N)N)NC(=O)[C@H](CC(=O)O)NC(=O)[C@@H](NC(=O)[C@H](C)N)CSCc2cc3cc(c2)CSC[C@@H](C(=O)NCC(N)=O)NC(=O)[C@@H]2CCCN2C(=O)CNC(=O)CNC(=O)[C@H](CCCNC(=N)N)NC(=O)CNC(=O)[C@H](CCCNC(=N)N)NC(=O)[C@H](CSC3)NC(=O)[C@H](CC(=O)O)NC(=O)[C@H](C(C)C)NC1=O` [UK969] (H-ACDRYVVDCRGRGGPCG-NH2; linker 2-9-16 via TBMB), the Ki was found to be 5.3 ± 0.2 nM.
